In test [1] the test system is isolated mitochondria from rat heart. In words: Mitochondrial respiration / oxidative phosphorylation (oxygraph). The class given is biochemical. The method, then: Male Wistar rats (250-325 g; obtained from Janvier Labs, Le Genest-Saint-Isle, France) were killed by stunning and cervical dislocation, and the heart was quickly removed and washed in cold isolation medium containing 100 mM sucrose, 180 mM KCl, 50 mM Tris, 5 mM MgCl2, 10 mM EDTA, and 0.1% (w/v) defatted BSA (pH 7.2).
Isolation of heart mitochondria was performed in a cold chamber. Before homogenization, hearts (about 1.5 g) were minced with scissors and treated for 5 minutes in 5 mL of the same medium supplemented with protease (2 mg of bacterial proteinase type XXIV per mL of isolation buffer) with stirring. The tissue suspension was poured into a 50-mL glass Potter homogenizer, diluted with 20 mL of isolation buffer, then homogenized for 3 minutes using a motorized Teflon pestle. The homogenate was filtered through bolting cloth (Sefar Nitex) to remove debris, and centrifuged at 8,000 g for 10 minutes. The resulting pellet was rinsed with 5 mL of isolation buffer, resuspended in 25 mL of the same buffer, then subjected to low speed centrifugation (400 g) for 8 minutes. […] Protein concentration was determined by the Bradford method (Sigma, kit #B6916) using BSA as standard. […]
Oxygen consumption rates of heart mitochondria (0.1 mg/mL), incubated in the absence or presence of AOL at increasing doses (from 0 to 80 μM final concentration), were recorded polarographically under constant stirring at 25° C. using a high-resolution oximeter (Oxygraph-2K, Oroboros Instruments, Austria). […]
Isolation of heart mitochondria was performed in a cold chamber. […] Protein concentration was determined by the Bradford method (Sigma, kit # B6916) using BSA as standard. […]
Oxygen consumption rates of heart mitochondria (0.1 mg/mL), incubated in the absence or presence of AOX at increasing doses (from 0 to 100 μM final concentration), were recorded polarographically under constant stirring at 25° C. using a high-resolution oximeter (Oxygraph-2K, Oroboros Instruments, Austria). […]

A further test concerns H460 cells. In words: Oxygen consumption of resting carcinoma cells (oxygraphy). The test is classed as cell-based, human. The conditions noted are these: 0 to 40 μM. As to the method: Human non-small cell carcinoma cell line H460 and A549 were obtained from ATCC. Cells were cultured in growth medium consisting of DMEM (GIBCO), 10% FBS (GIBCO) and 100 units of penicillin and 100 μg/mL streptomycin (GIBCO). The cells were maintained in either 75-cm^2 T-flasks or 175-cm^2 T-flasks (BD Biosciences) in an incubator (model 3100 series, Forma Scientific, Marietta, Ohio) controlled at 37° C., 95% humidity, and 5% CO2. Cell culture medium was refreshed every other day. Every 2 to 3 days, H460 and A549 cultures were detached from the flasks using a 0.25% trypsin solution (Gibco) and subcultured. All cultures were maintained at 80-90% confluence at the time of subculture.
The effects of AOX (0 to 40 μM) were assessed on carcinoma cells using the classical oxygraphic approach and compared to the effects of sister molecule AOL.
Oxygen consumption of H460 resting cells has been measured continuously and increasing concentrations of AOL and AOX (0 to 40 μM) have been injected to the preparation (FIG. 24).

SMILES strings stand for the structures. “Also recorded” adds a separate entry of the source.

Results on two compounds are retold here after patent US11484529B2, “Desmethylanethole trithione derivatives for the treatment of diseases linked to mitochondrial reactive oxygen species (ROS) production” (OP2 Drugs, priority 2017, dated 2022).

For `COc1ccc(-c2cc(=S)ss2)cc1` [AOL, 5-(4-methoxyphenyl)-3H-1,2-dithiole-3-thione], in test [1] (AOL 5 to 80 μM, glutamate+malate, succinate(+rotenone) or all substrates, substrate, ADP and ATR states), the “effect on mitochondrial respiration / oxidative phosphorylation” value is recorded as “no statistical differences in mitochondrial respiration; also recorded: statistically no differences were observed”. For the same compound, in the test on H460 cells, the “rate of oxygen consumption by H460 cells” value is reported as “no change in the rate of oxygen consumption”.

As for `Oc1ccc(-c2cc(=S)ss2)cc1` [AOX, 5-(4-hydroxyphenyl)-3H-1,2-dithiole-3-thione], in test [1] (AOX 20 to 100 μM, succinate (+ rotenone)), the “oxidation rate under substrate state and ATR state” value is on record as “increase for concentrations up to 50 μM followed by a decrease for concentrations over 50 μM”. Besides, the “concentrations with uncoupling effect on oxidative phosphorylation” value in test [1] (succinate (+ rotenone)) was “higher than 20 μM”. In the test with H460 cells, the “rate of oxygen consumption by H460 cells” value is “no change in the rate of oxygen consumption”.
